Test results from article PMC3828267 (PLoS ONE, 2013).
Several values for one entry are separate records, joined by “and”; a condition that tells them apart may be missing. Equal entries are not always repeated. Where two headings read alike, the source gives them in different places. Values belong to the compound of their own block, whether it stands above or below them.

Columns and labels:
human α4β2 AChRs [1] = biological target: T1, human α4β2 AChRs (Homo sapiens, UniProt P17787+P43681); experiment: Acute activation, FLEXStation membrane potential dye, α4β2 cell line; type: cell-based; conditions: for Agonist type (full or partial): α4β2, mixture of stoichiometries
T1 construct: expressed in transfected cells
T1 sequence (P43681 29-627 limits assumed): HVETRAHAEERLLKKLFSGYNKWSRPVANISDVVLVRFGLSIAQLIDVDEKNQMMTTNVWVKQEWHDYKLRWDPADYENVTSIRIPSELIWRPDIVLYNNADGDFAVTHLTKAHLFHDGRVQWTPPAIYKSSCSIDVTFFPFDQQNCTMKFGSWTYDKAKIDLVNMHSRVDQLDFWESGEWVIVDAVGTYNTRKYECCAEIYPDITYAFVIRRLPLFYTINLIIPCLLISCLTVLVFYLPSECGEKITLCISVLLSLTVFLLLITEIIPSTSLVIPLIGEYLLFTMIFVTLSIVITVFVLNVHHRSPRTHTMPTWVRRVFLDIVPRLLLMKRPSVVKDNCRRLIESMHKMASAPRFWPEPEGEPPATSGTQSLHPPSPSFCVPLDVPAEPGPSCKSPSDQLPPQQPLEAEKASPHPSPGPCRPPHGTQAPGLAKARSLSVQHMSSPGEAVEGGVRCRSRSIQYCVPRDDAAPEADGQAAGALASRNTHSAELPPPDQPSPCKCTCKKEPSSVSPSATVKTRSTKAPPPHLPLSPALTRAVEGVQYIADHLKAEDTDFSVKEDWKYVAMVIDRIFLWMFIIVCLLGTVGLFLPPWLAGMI
T1 sequence (P17787 26-502): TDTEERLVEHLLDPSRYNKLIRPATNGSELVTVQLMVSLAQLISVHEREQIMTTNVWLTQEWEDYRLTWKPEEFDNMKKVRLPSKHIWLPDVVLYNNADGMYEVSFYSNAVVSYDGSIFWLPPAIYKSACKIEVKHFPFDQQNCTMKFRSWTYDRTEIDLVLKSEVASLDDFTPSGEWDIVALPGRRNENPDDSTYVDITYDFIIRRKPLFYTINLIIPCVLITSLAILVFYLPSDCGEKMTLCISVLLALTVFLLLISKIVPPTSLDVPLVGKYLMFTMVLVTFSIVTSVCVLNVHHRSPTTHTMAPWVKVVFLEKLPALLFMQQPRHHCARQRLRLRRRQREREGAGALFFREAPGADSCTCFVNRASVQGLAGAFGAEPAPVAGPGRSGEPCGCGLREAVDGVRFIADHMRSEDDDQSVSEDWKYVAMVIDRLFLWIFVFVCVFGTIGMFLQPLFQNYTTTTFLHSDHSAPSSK
Procedure: (§1) The parental cell line used for transfections was tsA201, derived from the human embryonic kidney cell line (HEK) 293 [33]. […] The cell line permanently expressing α3β4 AChRs has been described, [34]. A stable cell line expressing functional α7 AChRs was prepared by initially transfecting the tsA201 cell line with cDNA for α7 and subsequently transfecting with cDNA for the AChR-selective chaperone, human RIC-3.
(§2) Responses to nicotinic agonists were determined using a FLEXStation microplate fluorometer (Molecular Devices, Sunnyvale, CA) as described. For cell lines expressing α4β2 and α3β4 AChRs, the cells were plated at 10^5 cells/ml (100 µl/well) in black-walled clear-bottom 96 well plates (Costar, Fisher Scientific, Pittsbugh, PA), and incubated for 48 hours prior to assaying responses to various nicotinic agonists. The α7/RIC-3 expressing cells were plated at 5×10^5/ml in black-walled clear-bottom 96 well BioCoat plates (BD Biosciences, Franklin Lakes, NJ) in the continued presence of VPA and PBA, with the addition of 5% human AB serum (Pel-Freez Biologicals, Rogers, AR) to further increase expression of α7 [35]. The cells were then grown for 24 hours prior to the assay.
(§3) To measure responses to various nicotinic agonists, 100 µl of a fluorescent dye which is sensitive to changes in membrane potential (Molecular Devices) was added to the wells. The dye was prepared according to the manufacturer’s instructions, with the addition of atropine (0.5 µM) to block muscarinic responses. The plates were then incubated at 37°C for one hour prior to the assay. Serial dilutions of agonists were then prepared in Hanks Balanced Salt Solution (HBSS) in V-shaped 96-well plates (Fisher Scientific Co, Pittsburgh, PA). Fluorescent responses were measured in the FLEX Station at 25°C, with an excitation wavelength of 530 nm and an emission wavelength of 565 nm. Various agonists (50 µl) were added after the first 20 seconds and responses were followed for 60–120 seconds.
(§4) Data were graphed using GraphPad Prism software. Non-linear models (sigmoidal dose-response with variable slope or two site competition) were used to fit the concentration response curves. The EC50 and IC50 were calculated from the curves. Kaleidagraph software was used to determine Hill slopes and standard errors of the EC50 and IC50.

α3β4 AChRs [2] = biological target: T2, α3β4 AChRs (Homo sapiens, UniProt P30926+P32297); experiment: Acute activation, FLEXStation membrane potential dye, α3β4 cell line; type: cell-based
T2 construct: expressed in transfected cells
T2 sequence (P32297 32-505): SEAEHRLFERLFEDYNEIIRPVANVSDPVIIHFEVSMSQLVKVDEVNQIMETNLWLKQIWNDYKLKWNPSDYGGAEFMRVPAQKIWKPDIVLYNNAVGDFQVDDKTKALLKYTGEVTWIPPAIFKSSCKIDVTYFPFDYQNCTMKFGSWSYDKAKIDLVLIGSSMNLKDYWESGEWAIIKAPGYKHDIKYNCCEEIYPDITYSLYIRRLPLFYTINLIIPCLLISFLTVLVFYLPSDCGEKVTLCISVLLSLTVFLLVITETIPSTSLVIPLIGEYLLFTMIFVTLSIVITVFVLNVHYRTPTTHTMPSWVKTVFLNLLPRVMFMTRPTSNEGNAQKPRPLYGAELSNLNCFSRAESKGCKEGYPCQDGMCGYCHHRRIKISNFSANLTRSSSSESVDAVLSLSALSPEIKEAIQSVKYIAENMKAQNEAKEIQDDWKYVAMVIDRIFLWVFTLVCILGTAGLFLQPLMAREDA
T2 sequence (P30926 22-498): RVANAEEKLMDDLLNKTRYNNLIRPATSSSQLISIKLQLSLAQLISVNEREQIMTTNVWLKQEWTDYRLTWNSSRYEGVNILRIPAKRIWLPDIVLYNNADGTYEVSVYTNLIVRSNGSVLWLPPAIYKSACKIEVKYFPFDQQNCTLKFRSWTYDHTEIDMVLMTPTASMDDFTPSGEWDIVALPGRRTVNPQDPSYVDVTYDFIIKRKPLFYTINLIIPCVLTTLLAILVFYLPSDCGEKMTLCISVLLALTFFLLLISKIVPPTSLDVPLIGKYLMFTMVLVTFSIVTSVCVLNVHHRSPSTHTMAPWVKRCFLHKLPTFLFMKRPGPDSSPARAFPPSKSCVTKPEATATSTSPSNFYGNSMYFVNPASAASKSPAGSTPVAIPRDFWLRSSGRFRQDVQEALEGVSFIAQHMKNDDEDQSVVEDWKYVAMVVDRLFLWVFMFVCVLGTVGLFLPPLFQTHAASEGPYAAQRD
Procedure: as §1, §2, §3, §4

α7 AChRs [3] = biological target: T3, α7 AChRs (Homo sapiens, UniProt P36544); experiment: Acute activation, FLEXStation membrane potential dye, α7/RIC-3 cell line; type: cell-based; parameters: expressed in transfected cells; grown in VPA and PBA
T3 sequence (P36544 23-502): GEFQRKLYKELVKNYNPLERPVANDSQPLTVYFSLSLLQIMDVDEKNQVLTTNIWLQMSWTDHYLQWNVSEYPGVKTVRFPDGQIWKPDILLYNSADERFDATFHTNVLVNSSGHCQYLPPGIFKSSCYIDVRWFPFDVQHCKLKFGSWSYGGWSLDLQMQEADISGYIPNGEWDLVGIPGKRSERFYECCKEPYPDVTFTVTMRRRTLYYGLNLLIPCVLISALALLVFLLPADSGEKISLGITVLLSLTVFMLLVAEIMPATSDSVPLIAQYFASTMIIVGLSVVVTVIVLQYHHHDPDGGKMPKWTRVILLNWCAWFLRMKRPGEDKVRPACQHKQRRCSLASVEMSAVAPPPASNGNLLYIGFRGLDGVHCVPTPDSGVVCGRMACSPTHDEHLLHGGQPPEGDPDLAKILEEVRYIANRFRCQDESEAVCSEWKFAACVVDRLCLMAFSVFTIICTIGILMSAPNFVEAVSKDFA
Procedure: as §1, §2, §3, §4

[4] = cited from earlier work
human α4β2 AChRs [5] = biological target: T1, human α4β2 AChRs; experiment: Chronic desensitization (16 h agonist, then ACh response) and calculated smoldering activation, α4β2 cell line; type: cell-based; conditions: for Emax at 1 µM: 1 µM varenicline, read-out: Smoldering activation, % of the maximum response; for AChRs desensitized: varenicline 1 µM; for Extent of desensitization of α4β2 AChRs to ACh: prolonged exposure, up to high concentrations
Procedure: (§5) To measure desensitization, plates were prepared as for agonist assays. Sixteen hours prior to the assay, serial dilutions of agonists, prepared in regular growth medium, were added to the plates. One hour before the assay, the membrane potential-sensitive fluorescent dye with 0.5 µM atropine was added to the wells. […] Each data point represents the average of peak values for individual dose response curves from 4–8 wells.
as §4
(§6) Responses for the three different AChRs are shown in Figures 3, 4, 5, 6, along with the dose response curves for activation (the same as shown in Figure 2). The range of concentrations at which both sustained activation and desensitization can occur (“smoldering activation”) was calculated by multiplying the acute response to agonists at each concentration by the fractional response remaining after desensitization.

α3β4 AChRs [6] = biological target: T2, α3β4 AChRs; experiment: Chronic desensitization (16 h agonist, then ACh response) and calculated smoldering activation, α3β4 cell line; type: cell-based; conditions: for Hill (desensitization) / Intercept of Activation and Desensitization Curves: α3β4: 1.0 mM ACh
Procedure: as §5, §4, §6

α7 AChRs [7] = biological target: T3, α7 AChRs; experiment: Chronic desensitization (16 h agonist, then ACh response) and calculated smoldering activation, α7 cell line; type: cell-based; parameters: expressed in transfected cells; grown in VPA and PBA; conditions: for Hill (desensitization) / Intercept of Activation and Desensitization Curves: α7: 10 µM ACh
Procedure: as §5, §4, §6

[8] = cited from earlier work; remark: listed apart in the source
(α4β2)2α4 AChRs = conditions: (α4β2)2α4, concatenated AChRs in Xenopus oocytes; cited from earlier work
(α4β2)2β2 AChRs = biological target: T4, (α4β2)2β2 AChRs (Homo sapiens, UniProt P17787+P43681); conditions: (α4β2)2β2, concatenated AChRs in Xenopus oocytes; cited from earlier work
T4 construct: expressed in transfected cells
T4 sequence (P43681 29-627 limits assumed): as the sequence (P43681 29-627 limits assumed) above
T4 sequence (P17787 26-502): as the sequence (P17787 26-502) above

[9] = α4β2, higher sensitivity component or monophasic curve
[10] = α4β2, lower sensitivity component
[11] = α4β2: 3 µM ACh ((α4β2)2β2 stoichiometry), centre of smoldering activation
[12] = α4β2: 3 µM ACh, first component
[13] = α4β2: 100 µM ACh (both stoichiometries)
[14] = α4β2: 100 µM ACh, first component

Compound: CC(=O)OCC[N+](C)(C)C [ACh, acetylcholine]
Agonist type (full or partial) (human α4β2 AChRs [1]): full agonists
Amplitude of response to saturating concentration (human α4β2 AChRs [1]; α4β2, saturating ACh (300 µM)): 167,000+/−18,000 relative fluorescence units
Hill (activation) (human α4β2 AChRs [1]; [9]): 1.5
Hill (activation) (human α4β2 AChRs [1]; [10]): 1.3
Hill (activation) (α3β4 AChRs [2]; α3β4): 1.8
Amplitude of response to saturating concentration (α3β4 AChRs [2]; α3β4, saturating ACh (1.0 mM)): 161,000+/−14,000 relative fluorescence units
Hill (activation) (α7 AChRs [3]; α7): 2.4
Time to maximum response after agonist application (α7 AChRs [3]; α7, saturating ACh): ≤ 5 s
Amplitude of response to saturating concentration (α7 AChRs [3]; α7, saturating ACh (10 µM)): 54,000+/−3000 relative fluorescence units and 54,00+/−3000 relative fluorescence units

Compound: CN1CCC[C@H]1c1cccnc1 [Nicotine, nicotine]
Agonist type (full or partial) (human α4β2 AChRs [1]): full agonists
Hill (activation) (human α4β2 AChRs [1]; [9]): 1.8
Hill (activation) (human α4β2 AChRs [1]; [10]): 2.5
Concentrations found in the blood of smokers [4]: 0.058 to 0.34 µM
Emax at 0.1 µM (human α4β2 AChRs [5]; read-out: Calculated smoldering activation, % of maximum response, (α4β2)2α4 stoichiometry, 0.1 µM nicotine): 18%
Emax at 0.1 µM (human α4β2 AChRs [5]; read-out: Calculated smoldering activation, % of maximum response, (α4β2)2β2 stoichiometry, 0.1 µM nicotine): 6%
Emax at […] (human α4β2 AChRs [5]; read-out: Calculated smoldering response, % of maximum response, (α4β2)2α4 stoichiometry, nicotine concentration of […]): 54%
Intercept of Activation and Desensitization Curves (human α4β2 AChRs [5]; [11]): 0.13 µM
Hill (desensitization) (human α4β2 AChRs [5]; [12]): −1.0
Intercept of Activation and Desensitization Curves (human α4β2 AChRs [5]; [13]): 1.82 µM
Hill (desensitization) (human α4β2 AChRs [5]; [14]): −1.2
Hill (desensitization) (α3β4 AChRs [6]): −0.9
Intercept of Activation and Desensitization Curves (α3β4 AChRs [6]): 8.7 µM
Hill (activation) (α3β4 AChRs [2]; α3β4): 1.1
Hill (activation) (α7 AChRs [3]; α7): 1.7
Hill (desensitization) (α7 AChRs [7]): −3.2
Intercept of Activation and Desensitization Curves (α7 AChRs [7]): 1.7 µM

Agonist type (full or partial) (human α4β2 AChRs [1]): partial agonists
Hill (activation) (human α4β2 AChRs [1]; [9]): 1.1
Hill (activation) (human α4β2 AChRs [1]; [10]): 1.8
Hill (activation) (α3β4 AChRs [2]; α3β4): 1.4
Hill (activation) (α7 AChRs [3]; α7): 3.5
Compound: c1cnc2cc3c(cc2n1)[C@@H]1CNC[C@H]3C1 [Varenicline, varenicline]
Emax at 1 µM (human α4β2 AChRs [5]; (α4β2)2α4 AChRs): 23%
AChRs desensitized (human α4β2 AChRs [5]; (α4β2)2α4 AChRs): ~50%
Emax at 1 µM (human α4β2 AChRs [5]; (α4β2)2β2 AChRs): 4.3%
AChRs desensitized (human α4β2 AChRs [5]; (α4β2)2β2 AChRs): > 90%
Extent of desensitization of α4β2 AChRs to ACh (human α4β2 AChRs [5]): fully desensitizing
Intercept of Activation and Desensitization Curves (human α4β2 AChRs [5]; [11]): 0.16 µM
Hill (desensitization) (human α4β2 AChRs [5]; [12]): −0.6
Intercept of Activation and Desensitization Curves (human α4β2 AChRs [5]; [13]): 0.93 µM
Hill (desensitization) (human α4β2 AChRs [5]; [14]): −1.0
Hill (desensitization) (α3β4 AChRs [6]): −1.1
Intercept of Activation and Desensitization Curves (α3β4 AChRs [6]): 2.1 µM
Peak levels ([8]; after 14 days on standard dose of 1 mg twice daily): 0.48 µM
Peak blood levels ([8]; humans, after a 1 mg dose): 0.1 µM
Levels reached in patients ([8]; patients on therapeutic doses): 0.4 µM
Hill (desensitization) (α7 AChRs [7]): −2.6
Intercept of Activation and Desensitization Curves (α7 AChRs [7]): 0.4 µM

Compound: O=c1cccc2n1C[C@@H]1CNC[C@H]2C1 [Cytisine, cytisine]
EC50 (human α4β2 AChRs [1]; Activation EC50, α4β2 cell line, mixed stoichiometries, higher sensitivity component where two-site fit, else monophasic): 5.5 ± 0.8 µM
Efficacy (%) (relative to ACh) (human α4β2 AChRs [1]; α4β2): 34%
Agonist type (full or partial) (human α4β2 AChRs [1]): partial agonist
Hill (activation) (human α4β2 AChRs [1]; [9]): 0.9
IC50 (human α4β2 AChRs [5]; Desensitization IC50, α4β2: 3 µM ACh, overnight (16 h) agonist, first (more sensitive) component): 0.001 ± 0.0005 µM
IC50 (human α4β2 AChRs [5]; Desensitization IC50, α4β2: 3 µM ACh, overnight agonist, second component): 0.25 ± 0.1 µM
IC50 (human α4β2 AChRs [5]; Desensitization IC50, α4β2: 100 µM ACh, overnight (16 h) agonist, first (more sensitive) component): 0.003 ± 0.0003 µM
IC50 (human α4β2 AChRs [5]; Desensitization IC50, α4β2: 100 µM ACh, overnight agonist, second component): 20 µM
Extent of desensitization of α4β2 AChRs to ACh (human α4β2 AChRs [5]): fully desensitizing
Concentration from which the desensitization dose response curve shows a plateau (human α4β2 AChRs [5]; α4β2, assayed with 100 µM ACh): above 10 nM
Intercept of Activation and Desensitization Curves (human α4β2 AChRs [5]; [11]): 0.45 µM
Hill (desensitization) (human α4β2 AChRs [5]; [12]): −1.1
Hill (desensitization) (human α4β2 AChRs [5]; α4β2: 3 µM ACh, second component): −1.1
Intercept of Activation and Desensitization Curves (human α4β2 AChRs [5]; [13]): 0.74 µM
Hill (desensitization) (human α4β2 AChRs [5]; [14]): −1.2
Hill (desensitization) (human α4β2 AChRs [5]; α4β2: 100 µM ACh, second component): −0.8
IC50 (α3β4 AChRs [6]): 1.3 ± 0.5 µM
Hill (desensitization) (α3β4 AChRs [6]): −0.6
Intercept of Activation and Desensitization Curves (α3β4 AChRs [6]): 4.1 µM
Agonist type ((α4β2)2α4 AChRs): partial agonist
EC50 (α3β4 AChRs [2]): 7.5 ± 1.1 µM
Agonist type (full or partial) (α3β4 AChRs [2]; α3β4): full agonist
Efficacy (%) (relative to ACh) (α3β4 AChRs [2]; α3β4): 100%
Hill (activation) (α3β4 AChRs [2]; α3β4): 1.3
Agonist type ((α4β2)2β2 AChRs): inactive
EC50 (α7 AChRs [3]): 2 ± 0.06 µM
Agonist type (full or partial) (α7 AChRs [3]; α7): full agonist
Efficacy (%) (relative to ACh) (α7 AChRs [3]; α7): 100%
Hill (activation) (α7 AChRs [3]; α7): 4.3
IC50 (α7 AChRs [7]): 4.2 ± 0.74 µM
Hill (desensitization) (α7 AChRs [7]): −1.4
Intercept of Activation and Desensitization Curves (α7 AChRs [7]): 2.1 µM
